Measurements: patent US20230131025A1, “QUINOLYL PHOSPHINE OXIDE COMPOUND, AND COMPOSITION AND APPLICATION THEREOF” (Betta Pharmaceuticals Co., Ltd., priority 2020, published 2023)

Legend:
[1] = target: EGFR Δ19del/T790M/C797S (Homo sapiens, UniProt P00533, T790M/C797S, form not given); assay: Kinase inhibition assay (mobility shift); format: biochemical
Protocol: (§1) Experiment 1 Kinase Inhibition Assay Mobility shift assays were performed to determine inhibitory activity of compounds against EGFR^Δ19del/T790M/C797S, EGFR WT and IGF1R kinases. The enzymatic reaction scheme is as follows:
(§2) 1. Preparing 1*Kinase Buffer as follows:
(§3) 2. Preparing compound concentration gradient: the initial concentration of the compound tested in the assay was 3,000 nM or 100 nM, which is then diluted to be 100-fold final concentration in 100% DMSO in a 384-source plate. Compounds in 10 concentrations were diluted in a 3-fold gradient with Precision. 250 nL of compound in 100-fold final concentration was transferred to OptiPlate-384F plate by using a dispenser named Echo 550.
(§4) 3. Preparing kinase solution at 2.5-fold the final concentration with 1×kinase buffer.
(§5) 4. Adding 10 μL of kinase solution at 2.5-fold the final concentration to compound wells and positive control wells respectively; and adding 10 μL of 1×kinase buffer to negative control wells.
(§6) 5. Centrifuging the wells at 1,000 rpm for 30 seconds, mixing the reaction plate well by shaking and incubating it at room temperature for 10 minutes.
(§7) 6. Preparing a mixed solution of ATP and kinase substrate at 5-fold/3-fold the final concentration with 1×Kinase buffer, respectively.
(§8) 7. Initiating the reaction by adding 15 μL of the mixed solution of ATP and kinase substrate at 5-fold/3-fold the final concentration.
(§9) 8. Centrifuging the 384-well plate at 1,000 rpm for 30 seconds, mixing the reaction plate well by shaking and incubating it at room temperature for a corresponding time.
(§10) 9. Adding 30 μL of assay stop solution to stop the kinase reaction, and centrifuging the plate at 1,000 rpm for 30 seconds and mixing it well by shaking.
(§11) 10. Reading the conversion rate with Caliper EZ Reader.
(§12) [formula] • wherein, “Conversion % sample” is the conversion rate reading of the sample;
(§13) “Conversion %_min” is the mean value of the negative control wells, representing the conversion rate readings of the well without enzymatic activity; “Conversion %_max” is the mean value of the positive control wells, representing the conversion rate readings of the wells without compound inhibition. • Dose-response curve is plotted with the logarithmic concentration on the X-axis and percent inhibition on the Y-axis. The fitting of the dose-response curve is made with the module “log(inhibitor) vs. response—Variable slope” of the analysis software GraphPad Prism 5, so that the IC50 value of each compound on enzymatic activity is obtained. • The calculation formula is: Y=Bottom+(Top−Bottom)/(1+10^((Log IC50−X)*HillSlope)).

[2] = target: EGFR WT (Homo sapiens, UniProt P00533); assay: Kinase inhibition assay (mobility shift); format: biochemical
Protocol: as §1, §2, §3, §4, §5, §6, §7, §8, §9, §10, §11, §12, §13

[3] = target: IGF1R (Homo sapiens, UniProt P08069); assay: Kinase inhibition assay (mobility shift); format: biochemical
Protocol: as §1, §2, §3, §4, §5, §6, §7, §8, §9, §10, §11, §12, §13

[4] = system: human epidermal cancer cells A431 carrying EGFR WT; assay: Cell proliferation experiment (CellTiter Glo, 72 hours); format: cell-based; conditions: Homo sapiens, A-431
Method in brief: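 Cells seeded at 2000 or 3000/well and exposed 72 h to 9-point 3-fold dilutions, top final 10000 nM or 1111 nM, 0.1% DMSO. Viability by CellTiter-Glo luminescence. Inhibition relative to cell and medium controls; IC50 by four-parameter nonlinear regression.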

[5] = target: Ba/F3-Δ19del/T790M/C797S (Homo sapiens, UniProt P00533, T790M/C797S, cells depend on it, form not given); assay: as above; format: cell-based; conditions: read-out: Ba/F3/EGFR Δ19del/T790M/C797S IC50
Method in brief: (§14)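 Ba/F3 cells overexpressing EGFR Δ19del/T790M/C797S or EGFR WT were seeded at 2000 or 3000 cells/well and exposed 72 h to 9 compound concentrations (3-fold, top 10000 or 1111 nM final, 0.1% DMSO). CellTiter-Glo luminescence gave survival inhibition versus controls; IC50 from nonlinear fit.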

[6] = target: Ba/F3 EGFR WT (Homo sapiens, UniProt P00533); assay: as above; format: cell-based; conditions: read-out: BaF3 EGFR WT IC50
Method in brief: as §14

EGFR WT, sequence (P00533 25-1210): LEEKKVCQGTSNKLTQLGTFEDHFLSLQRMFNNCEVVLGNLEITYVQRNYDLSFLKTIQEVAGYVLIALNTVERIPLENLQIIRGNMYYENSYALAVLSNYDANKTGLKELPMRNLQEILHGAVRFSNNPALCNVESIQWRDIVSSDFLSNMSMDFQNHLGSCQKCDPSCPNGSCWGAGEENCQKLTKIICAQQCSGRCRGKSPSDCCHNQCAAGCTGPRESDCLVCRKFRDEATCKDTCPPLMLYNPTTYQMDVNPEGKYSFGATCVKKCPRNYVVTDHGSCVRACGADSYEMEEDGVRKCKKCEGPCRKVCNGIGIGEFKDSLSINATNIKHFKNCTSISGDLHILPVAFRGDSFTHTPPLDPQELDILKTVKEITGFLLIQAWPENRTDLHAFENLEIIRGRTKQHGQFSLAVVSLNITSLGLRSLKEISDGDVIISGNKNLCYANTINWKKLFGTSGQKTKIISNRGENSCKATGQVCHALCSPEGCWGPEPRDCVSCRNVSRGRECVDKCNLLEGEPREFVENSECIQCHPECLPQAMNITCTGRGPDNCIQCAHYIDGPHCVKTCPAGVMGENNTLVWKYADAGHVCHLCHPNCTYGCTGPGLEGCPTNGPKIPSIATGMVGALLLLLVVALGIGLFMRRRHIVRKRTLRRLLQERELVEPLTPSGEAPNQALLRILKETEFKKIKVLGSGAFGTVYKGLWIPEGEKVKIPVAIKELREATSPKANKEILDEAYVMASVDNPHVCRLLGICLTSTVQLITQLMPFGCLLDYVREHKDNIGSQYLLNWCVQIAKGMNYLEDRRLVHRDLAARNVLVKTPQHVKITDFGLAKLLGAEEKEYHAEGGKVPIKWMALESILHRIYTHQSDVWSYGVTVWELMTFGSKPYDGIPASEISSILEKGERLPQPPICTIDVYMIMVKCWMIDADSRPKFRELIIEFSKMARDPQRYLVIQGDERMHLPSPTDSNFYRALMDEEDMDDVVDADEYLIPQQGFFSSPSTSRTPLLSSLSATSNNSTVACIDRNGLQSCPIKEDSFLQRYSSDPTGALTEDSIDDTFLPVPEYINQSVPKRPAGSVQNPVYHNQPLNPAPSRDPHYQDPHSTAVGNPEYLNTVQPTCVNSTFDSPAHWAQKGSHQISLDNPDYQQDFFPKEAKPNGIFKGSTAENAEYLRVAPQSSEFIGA
Ba/F3 EGFR WT, sequence (P00533 whole entry, change not shown): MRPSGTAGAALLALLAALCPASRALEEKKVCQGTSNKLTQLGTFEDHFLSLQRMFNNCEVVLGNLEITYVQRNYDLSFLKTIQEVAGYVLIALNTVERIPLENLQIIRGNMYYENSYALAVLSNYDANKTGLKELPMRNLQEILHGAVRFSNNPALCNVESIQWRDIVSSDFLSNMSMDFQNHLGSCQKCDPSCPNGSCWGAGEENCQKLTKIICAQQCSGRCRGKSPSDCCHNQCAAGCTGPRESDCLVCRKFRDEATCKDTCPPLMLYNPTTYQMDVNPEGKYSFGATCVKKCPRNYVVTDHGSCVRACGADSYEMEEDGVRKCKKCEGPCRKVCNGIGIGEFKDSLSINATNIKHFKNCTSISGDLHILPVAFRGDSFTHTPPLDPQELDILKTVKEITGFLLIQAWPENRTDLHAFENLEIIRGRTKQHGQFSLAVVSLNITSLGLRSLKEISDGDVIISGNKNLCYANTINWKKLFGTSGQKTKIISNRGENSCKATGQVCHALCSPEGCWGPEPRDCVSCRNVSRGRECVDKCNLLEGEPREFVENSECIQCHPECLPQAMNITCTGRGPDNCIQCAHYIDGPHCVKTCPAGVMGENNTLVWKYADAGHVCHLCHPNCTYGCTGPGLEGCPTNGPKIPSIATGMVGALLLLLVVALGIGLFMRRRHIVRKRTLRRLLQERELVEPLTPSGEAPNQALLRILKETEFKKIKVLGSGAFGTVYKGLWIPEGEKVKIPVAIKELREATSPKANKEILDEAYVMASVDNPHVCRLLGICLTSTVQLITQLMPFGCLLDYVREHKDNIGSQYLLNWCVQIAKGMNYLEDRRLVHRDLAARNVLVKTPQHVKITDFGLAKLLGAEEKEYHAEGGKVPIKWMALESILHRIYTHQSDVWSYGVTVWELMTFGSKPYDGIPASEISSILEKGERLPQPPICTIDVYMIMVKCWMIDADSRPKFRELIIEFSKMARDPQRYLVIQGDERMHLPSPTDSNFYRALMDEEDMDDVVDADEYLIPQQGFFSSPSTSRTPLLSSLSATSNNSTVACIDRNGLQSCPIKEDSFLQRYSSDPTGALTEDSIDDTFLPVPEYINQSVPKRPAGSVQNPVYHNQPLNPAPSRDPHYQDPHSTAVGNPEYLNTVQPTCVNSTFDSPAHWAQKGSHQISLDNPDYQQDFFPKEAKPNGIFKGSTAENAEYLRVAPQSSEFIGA
IGF1R, sequence (P08069 31-1367, species assumed): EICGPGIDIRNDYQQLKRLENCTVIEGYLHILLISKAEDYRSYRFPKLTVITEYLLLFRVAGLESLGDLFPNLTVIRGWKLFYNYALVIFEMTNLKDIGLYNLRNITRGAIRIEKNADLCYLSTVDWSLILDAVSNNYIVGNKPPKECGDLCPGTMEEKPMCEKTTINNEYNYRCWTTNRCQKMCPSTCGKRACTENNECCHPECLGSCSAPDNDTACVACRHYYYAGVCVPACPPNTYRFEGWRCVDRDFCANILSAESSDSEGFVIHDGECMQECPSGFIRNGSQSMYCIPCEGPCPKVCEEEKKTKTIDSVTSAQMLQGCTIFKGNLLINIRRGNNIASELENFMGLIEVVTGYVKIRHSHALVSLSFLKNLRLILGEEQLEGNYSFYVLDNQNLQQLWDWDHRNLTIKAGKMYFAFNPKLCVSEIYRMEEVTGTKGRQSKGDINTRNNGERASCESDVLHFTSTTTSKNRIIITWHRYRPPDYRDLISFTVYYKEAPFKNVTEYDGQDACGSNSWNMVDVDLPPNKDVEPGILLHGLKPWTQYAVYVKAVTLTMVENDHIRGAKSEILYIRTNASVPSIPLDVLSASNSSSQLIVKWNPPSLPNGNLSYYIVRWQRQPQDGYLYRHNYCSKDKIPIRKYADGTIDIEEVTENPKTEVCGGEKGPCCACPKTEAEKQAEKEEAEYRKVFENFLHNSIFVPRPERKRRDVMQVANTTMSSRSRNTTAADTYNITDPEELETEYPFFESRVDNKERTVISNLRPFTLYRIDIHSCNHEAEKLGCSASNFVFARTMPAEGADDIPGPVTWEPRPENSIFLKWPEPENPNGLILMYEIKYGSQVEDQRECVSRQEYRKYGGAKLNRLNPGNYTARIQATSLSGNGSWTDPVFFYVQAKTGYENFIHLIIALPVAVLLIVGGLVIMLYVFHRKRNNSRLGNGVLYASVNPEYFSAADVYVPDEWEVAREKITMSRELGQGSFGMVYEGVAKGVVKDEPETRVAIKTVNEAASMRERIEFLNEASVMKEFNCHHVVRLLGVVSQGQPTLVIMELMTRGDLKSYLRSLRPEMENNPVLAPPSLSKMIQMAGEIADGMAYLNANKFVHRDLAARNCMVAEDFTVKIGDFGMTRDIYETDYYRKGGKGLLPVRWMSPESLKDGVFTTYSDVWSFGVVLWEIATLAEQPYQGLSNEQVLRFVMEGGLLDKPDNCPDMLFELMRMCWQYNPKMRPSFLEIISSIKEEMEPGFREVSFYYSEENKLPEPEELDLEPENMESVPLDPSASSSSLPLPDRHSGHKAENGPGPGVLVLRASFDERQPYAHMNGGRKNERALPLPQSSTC
Ba/F3-Δ19del/T790M/C797S, sequence (P00533 with tags, fused parts or gaps DEL746-750/T790M/C797S, form open): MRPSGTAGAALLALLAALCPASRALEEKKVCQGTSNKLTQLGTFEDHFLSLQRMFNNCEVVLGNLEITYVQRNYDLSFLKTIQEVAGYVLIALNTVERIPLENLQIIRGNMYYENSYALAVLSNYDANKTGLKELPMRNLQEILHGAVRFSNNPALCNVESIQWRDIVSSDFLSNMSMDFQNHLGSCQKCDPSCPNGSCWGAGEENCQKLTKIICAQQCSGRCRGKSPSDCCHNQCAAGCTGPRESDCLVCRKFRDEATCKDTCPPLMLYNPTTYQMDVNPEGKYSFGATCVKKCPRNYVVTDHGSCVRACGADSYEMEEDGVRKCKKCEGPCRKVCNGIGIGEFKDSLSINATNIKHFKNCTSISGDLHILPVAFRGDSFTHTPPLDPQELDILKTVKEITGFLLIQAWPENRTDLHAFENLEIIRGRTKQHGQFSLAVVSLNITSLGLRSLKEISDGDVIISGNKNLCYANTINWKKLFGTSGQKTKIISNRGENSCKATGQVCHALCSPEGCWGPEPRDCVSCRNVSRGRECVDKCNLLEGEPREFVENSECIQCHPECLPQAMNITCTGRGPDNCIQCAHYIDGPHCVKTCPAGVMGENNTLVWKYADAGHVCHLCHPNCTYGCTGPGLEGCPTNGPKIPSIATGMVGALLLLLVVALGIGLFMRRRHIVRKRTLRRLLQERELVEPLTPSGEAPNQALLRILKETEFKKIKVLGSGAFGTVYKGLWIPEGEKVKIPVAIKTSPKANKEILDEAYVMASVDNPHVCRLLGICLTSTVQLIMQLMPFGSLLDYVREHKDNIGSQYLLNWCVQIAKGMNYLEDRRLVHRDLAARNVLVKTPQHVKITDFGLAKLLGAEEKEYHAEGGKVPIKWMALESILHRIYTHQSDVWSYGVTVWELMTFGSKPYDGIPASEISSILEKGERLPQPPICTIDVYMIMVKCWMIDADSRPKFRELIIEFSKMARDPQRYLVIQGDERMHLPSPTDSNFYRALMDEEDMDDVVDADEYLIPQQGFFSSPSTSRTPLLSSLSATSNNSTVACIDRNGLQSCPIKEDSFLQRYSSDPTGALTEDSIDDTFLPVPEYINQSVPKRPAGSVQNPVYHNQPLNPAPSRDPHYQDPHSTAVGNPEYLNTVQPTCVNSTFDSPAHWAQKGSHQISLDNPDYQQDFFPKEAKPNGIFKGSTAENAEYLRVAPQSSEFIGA

Row | SMILES | IC50 [1] [nM] | IC50 [2] [nM] | IC50 [3] [nM] | IC50 [4] [nM] | GI50 [5] [nM] | GI50 [6] [nM]
1 | COc1cc(Nc2ncc(Br)c(Nc3ccc4nc(C5CC5)ccc4c3P(C)(C)=O)n2)c(C(C)C)cc1N1CCOCC1 [Compound J-005, (6-((5-Bromo-2-((2-isopropyl-5-methoxy-4-morpholinylphenyl)amino)pyrimidin-4-yl)amino)-2-cyclopropylquinoline-5-yl)dimethylphosphine oxide] | 0.5 | 132 | 74.4 | 6140 | 27 | 698
2 | COc1cc(Nc2ncc(Br)c(Nc3ccc4nc(-c5cnn(C)c5)ccc4c3P(C)(C)=O)n2)c(C)cc1N1CCOCC1 [Compound J-007, (6-((5-Bromo-2-((5-methoxy-2-methyl-4-morpholinylphenyl)amino)pyrimidin-4-yl)amino)-2-(1-methyl-1H-pyrazol-4-yl)quinolin-5-yl)dimethylphosphine oxide] | 0.2 | 30.3 | 41 | 1030 | 6 | 147
3 | COc1cc(Nc2ncc(Br)c(Nc3ccc4nc(C5CC5)ccc4c3P(C)(C)=O)n2)c(C)cc1N1CCOCC1 [Compound J-001, (6-((5-Bromo-2-((5-methoxy-2-methyl-4-morpholinylphenyl)amino)pyrimidin-4-yl)amino)-2-cyclopropylquinoline-5-yl)dimethylphosphine oxide] | 0.5 | 51.7 | 63.6 | 1350 | 26.5 | 396
4 | COc1cc(-c2ccc(N3CCN(C)CC3)cc2)c(C)cc1Nc1ncc(Br)c(Nc2ccc3nc(C4CC4)ccc3c2P(C)(C)=O)n1 [Compound J-040, (6-((5-Bromo-2-((5-methoxy-2-methyl-4′-(4-methylpiperazin-1-yl)-[1,1′-biphenyl]-4-yl)amino)pyrimidin-4-yl)amino)-2-cyclopropylquinolin-5-yl)dimethylphosphine oxide] | 6 | 550 | 1160 |  |  | 
5 | COc1cc(Nc2ncc(Br)c(Nc3ccc4nc(C5CC5)ccc4c3P(C)(C)=O)n2)cc(C)c1N1CCOCC1 [Compound J-006, (6-((5-Bromo-2-((3-methoxy-5-methyl-4-morpholinylphenyl)amino)pyrimidin-4-yl)amino)-2-cyclopropylquinoline-5-yl)dimethylphosphine oxide] | 3.5 | 714 | 437 |  |  | 
6 | COc1cc(Nc2ncc(Br)c(Nc3ccc4nc(C5CC5)ccc4c3P(C)(C)=O)n2)c(C2CC2)cc1N1CCOCC1 [Compound J-004, (6-((5-Bromo-2-((2-cyclopropyl-5-methoxy-4-morpholinylphenyl)amino)pyrimidin-4-yl)amino)-2-cyclopropylquinoline-5-yl)dimethylphosphine oxide] | 0.7 | 283 | 380 |  |  | 

Further lines, results first:

Row | IC50 [1] [nM] | IC50 [2] [nM] | IC50 [3] [nM] | IC50 [4] [nM] | GI50 [5] [nM] | GI50 [6] [nM] | SMILES
7 | 0.72 | 21 | 107 | 983 | 2.2 | 144 | COc1cc(N2CCC(N3CCN(C)CC3)CC2)c(OC)cc1Nc1ncc(Br)c(Nc2ccc3nc(C4CC4)ccc3c2P(C)(C)=O)n1 [Compound J-020, (6-((5-Bromo-2-((2,5-dimethoxy-4-(4-(4-methylpiperazin-1-yl)piperidin-1-yl)phenyl)amino)pyrimidin-4-yl)amino)-2-cyclopropylquinolin-5-yl)dimethylphosphine oxide]
8 | 0.5 | 33.5 | 21.5 | 1110 | 12 | 256 | COc1cc(Nc2ncc(Br)c(Nc3ccc4nc(C5CC5)ccc4c3P(C)(C)=O)n2)c(C)cc1N1CCN(C2CCCC2)CC1 [Compound J-039, (6-((5-Bromo-2-((4-(4-cyclopentylpiperazin-1-yl)-5-methoxy-2-methylphenyl)amino)pyrimidin-4-yl)amino)-2-cyclopropylquinolin-5-yl)dimethylphosphine oxide]
9 | 0.2 | 43.9 | 279 | 830 | 3.4 | 130 | COc1cc(N2CCN(C)CC2)c(C#N)cc1Nc1ncc(Br)c(Nc2ccc3nc(C4CC4)ccc3c2P(C)(C)=O)n1 [Compound J-012, 5-((5-Bromo-4-((2-cyclopropyl-5-(dimethylphosphineoxide)quinolin-6-yl)amino)pyrimidin-2-yl)amino)-4-methoxy-2-(4-methylpiperazin-1-yl)benzonitrile]
10 | 0.3 | 11.1 | 61.6 | 9010 | 1.4 | 52 | CCc1cc(Nc2ncc(Br)c(Nc3ccc4nc(C5CC5)ccc4c3P(C)(C)=O)n2)c(C)cc1N1CCC(N2CCN(C)CC2)CC1 [Compound J-027, (6-((5-Bromo-2-((5-ethyl-2-methyl-4-(4-(4-methylpiperazin-1-yl)piperidin-1-yl)phenyl)amino)pyrimidin-4-yl)amino)-2-cyclopropylquinolin-5-yl)dimethylphosphine oxide]
11 | 0.3 | 4.6 | 16.8 | 379 | 5.1 | 132 | CCc1cc(Nc2ncc(Br)c(Nc3ccc4nc(C#N)ccc4c3P(C)(C)=O)n2)c(OC)cc1N1CCC(N2CCN(C)CC2)CC1 [Compound J-016, 6-((5-Bromo-2-((5-ethyl-2-methoxy-4-(4-(4-methylpiperazin-1-yl)piperidin-1-yl)phenyl)amino)pyrimidin-4-yl)amino)-5-(dimethylphosphineoxide)quinoline-2-formonitrile]
12 | 0.12 | 23 | 298 | 440 | 5.8 | 189 | COc1cc(N2CCC(N3CCN(C)CC3)CC2)c(C)cc1Nc1ncc(Br)c(Nc2ccc3nc(C(C)C)ccc3c2P(C)(C)=O)n1 [Compound J-034, (6-((5-Bromo-2-((2-methoxy-5-methyl-4-(4-(4-methylpiperazin-1-yl)piperidin-1-yl)phenyl)amino)pyrimidin-4-yl)amino)-2-isopropylquinolin-5-yl)dimethylphosphine oxide]
13 | 36 | > 3000 | > 3000 |  |  |  | COc1cc(Nc2ncc(Br)c(Nc3ccc4nc(C5CC5)ccc4c3P(C)(C)=O)n2)c(C2CCOCC2)cc1N1CCC(N2CCN(C)CC2)CC1 [Compound J-026, (6-((5-Bromo-2-((5-methoxy-4-(4-(4-methylpiperazin-1-yl)piperidin-1-yl)-2-(tetrahydro-2H-pyran-4-yl)phenyl)amino)pyrimidin-4-yl)amino)-2-cyclopropylquinolin-5-yl)dimethylphosphine oxide]
14 | 0.3 | 18.4 | 246 |  |  |  | CCc1cc(Nc2ncc(Br)c(Nc3ccc4nc(-c5cnn(C)c5)ccc4c3P(C)(C)=O)n2)c(OC)cc1N1CCC(N2CCN(C)CC2)CC1 [Compound J-017, (6-((5-Bromo-2-((5-ethyl-2-methoxy-4-(4-(4-methylpiperazin-1-yl)piperidin-1-yl)phenyl)amino)pyrimidin-4-yl)amino)-2(1-methyl-1H-pyrazol-4-yl)quinolin-5-yl)dimethylphosphine oxide]
15 | 43 | 2310 | > 3000 |  |  |  | COc1cc(Nc2ncc(Br)c(Nc3ccc4nc(C5CC5)ccc4c3P(C)(C)=O)n2)c(C#N)cc1N1CCC(N2CCN(C)CC2)CC1 [Compound J-025, 2-((5-Bromo-4-((2-cyclopropyl-5-(dimethylphosphineoxide)quinolin-6-yl)amino)pyrimidin-2-yl)amino)-4-methoxy-5-(4-(4-methylpiperazin-1-yl)piperidin-1-yl)benzonitrile]
